Data as given in US20220287998A1, “USE OF C3aR IN PREPARING DRUG FOR PREVENTING OR TREATING POLYCYSTIC KIDNEY DISEASE” (Shanghai Changzheng Hospital, priority 2021, published 2022).

Tests used:
Pkd1 knockout mice = assay: Effect of C3aR inhibitor SB290157 on cyst indexes and kidney function of Pkd1 knockout mice; type: in vivo
Description: Experimental animals: the animals used in this experiment were PKD1^flox/flox-Tamoxifen-Cre mice, gifted by professor Wüthrich RP, University of Zurich, Switzerland, and were bred in Specific Pathogen Free (SPF) Laboratory Animal Center of Naval Medical University [License No: SYXK (Shanghai): 2017-0004].
The blood creatinine, urea nitrogen, kidney/body weight, and cyst index of each group of mice were compared.
The main reagents used were a C3aR inhibitor (Calbiochem, SB290157, Germany), Creatinine Assay Kit (Nanjing Jiancheng Bioengineering Institute), Urea Nitrogen Assay Kit (Nanjing Institute of Built Bioengineering), and dimethyl sulfoxide (DMSO) (Amresco, 1963C070, USA).
Serum creatinine (μmol/L)=[(Sample A2-K*Sample A1)−(Blank A2-K*Blank A1)]/[(Standard A2-K*Standard A1)−(Blank A2-K*Blank A1)]*Standard Concentration; Formula:
Urea nitrogen (mmol/L)=(Assay OD−Blank OD)/(Standard OD−blank OD)*Standard Concentration (10 mmol/L)*Dilution multiple;
After HE staining, scanning was performed with a whole slide image scanner, and pictures were exported and saved using CaseViewer software. The total pixel value of the whole kidney in Photoshop software was calculated as A1, a cyst area was selected and calculated the total pixel value as A2, wherein the ratio of A2 to A1 is the cyst index.

[1] = test system: Pkd1 conditional knockout mice; assay: F4/80 immunofluorescence staining, macrophage infiltration in kidney tissue of Pkd1 conditional knockout mice; type: in vivo; conditions: 1 mg/kg i.p. once a day; treatment group versus model control group
Description: F4/80 in the kidney tissues of the wild group, the model control group and the SB290157 treatment group were stained by immunofluorescence to compare the macrophage infiltration.

[2] = test system: mouse cyst epithelial cells; assay: Ki67 immunohistochemical staining of kidney slices, proliferation of cyst epithelial cells; type: in vivo, mice; conditions: treatment group versus model control group
Protocol: In order to explore whether the proliferation of mouse cyst epithelial cells was restricted after treatment, immunohistochemical staining for Ki67 was performed on kidney slices of each group of mice, wherein Ki67 was a nuclear protein that could reflect the cell proliferation level.

[3] = test system: ADPKD-related pathway protein; assay: Western blot of ADPKD-related signaling pathway proteins in kidney tissue; type: in vivo, mice
Description: In order to further explore the therapeutic mechanism of SB290157 on polycystic kidney mice, the expression of ADPKD-related pathway protein was detected by Western blot.

Pkd1 knockout mouse = assay: Apoptosis of cyst cells in Pkd1 knockout mouse; type: in vivo
[4] = test system: Han:sPRD rats and PKD1 knockout mice; conditions: cited from earlier work
RAW264.7 cells [5] = assay: C3a stimulation of macrophages, RT-PCR of iNOS, TNF-α and IL-6 mRNA; type: cell-based, Murine; conditions: 24 hours
Protocol: (§1) The C3aR expression on the cell surface affected the sensitivity of downstream signals induced by C3a, so C3a-C3aR should act mainly on M1-type macrophages, which was consistent with the downstream pro-inflammatory effect. To verify the effect of C3a stimulation on the expression of M1-type macrophage inflammatory factor, RAW264.7 cells were divided into 5 groups: (1) a control group: without any stimulation; (2) a LPS group: stimulated with 100 ng/ml LPS; (3) a LPS+C3a group: stimulated with 100 ng/ml LPS+100 ng/ml C3a; (4) a IL-4 group: stimulated with 20 ng/ml IL-4; (5) a IL-4+C3a group: stimulated with 20 ng/ml IL-4+100 ng/ml C3a. After 24 hours, cell RNA was extracted, and RT-PCR was used for detecting iNOS, TNF-α and IL-6 mRNA level in each group of cells, wherein the primer sequence used by RT-PCR was as follows: iNOS primer sequence Mouse F: 5′-[…]-3′ (SEQ ID NO:9), Mouse R: 5′-[…]-3′ (SEQ ID NO:10), IL-6 primer sequence Mouse F: 5′-[…]-3′ (SEQ ID NO:11), Mouse R: 5′-[…]-3′ (SEQ ID NO:12), TNF-α primer sequence Mouse F: 5′-GGCATGGATCTCAAAGACA-3′ (SEQ ID NO:13), Mouse R: 5′-TGGGCTCATACCAGGGTT-3′ (SEQ ID NO:14).

RAW264.7 cells [6] = assay: TNF-α level in macrophage culture supernatants by Elisa; type: cell-based, Murine; conditions: culture supernatant, after C3a stimulation
Protocol: as §1
The TNF-α level in the culture supernatants of macrophages from different treatment groups were detected by Elisa. […]

RAW264.7 cells [7] = assay: C3a stimulation of macrophages, Western blot of p-Akt, p-ERK, p-P65, p-STAT1 and TNF-α; type: cell-based, Murine; conditions: 24 hours
Protocol: In order to explore the mechanism of pro-inflammatory effects of C3a-C3aR on M1-type macrophages, RAW264.7 cells were divided into 4 groups with LPS as a stimulation factor and C3a as an intervention factor: (1) a control group (without any stimulation); (2) a C3a (100 ng/ml) stimulation group; (3) a LPS (100 ng/ml) stimulation group; (4) a C3a (100 ng/ml)+LPS (100 ng/ml) stimulation group. After 24 hours, cell proteins in each group were extracted, and Western blot was used for detecting the expression of p-Akt, p-ERK, p-P65, p-STAT1 and TNF-α. […] Akt and ERK may regulate the apoptosis and proliferation of M1-type macrophages, while NF-κB and STAT1 was an important signaling pathway for polarization and related inflammation of M1-type macrophage. Therefore, it is speculated that C3a-C3aR may promote the activation of Akt, ERK, STAT1 and NF-κB pathway in M1-type macrophages, and then promote the secretion of TNF-α inflammatory factors by M1-type macrophages.

[8] = treatment group compared with model control group
[9] = treatment group compared to model control group
[10] = M1-type macrophages (100 ng/ml LPS) + 100 ng/ml C3a
[11] = M1-type macrophages, C3a 100 ng/ml + LPS 100 ng/ml

## N=C(N)NCCCC(NC(=O)COCC(c1ccccc1)c1ccccc1)C(=O)O (stereo not drawn) [SB290157]
Pkd1 knockout mice; Pkd1 knockout mice, 1 mg/kg i.p. once a day, day 28, model control 0.112±0.006, wild 0.012±0.000
  double kidney weight/body weight ratio (2KW/BW): 0.043±0.007
Pkd1 knockout mice; Pkd1 knockout mice, 1 mg/kg i.p. once a day, day 28, model control 80.4±6.0, wild 6.8±0.7
  blood urea nitrogen: 26.3 ± 6.5 mmol/L
Pkd1 knockout mice; Pkd1 knockout mice, 1 mg/kg i.p. once a day, day 28, model control 90.0±3.6, wild 13.0±1.2 μmol/L
  serum creatinine: 29.3±3.4 μm
Pkd1 knockout mice; Pkd1 knockout mice, 1 mg/kg intraperitoneal once a day from postnatal day 12, sacrificed day 28, model control 49.9±1.9%
  cyst index: 35.3±1.9%
Pkd1 knockout mice; [8]
  cyst area (HE staining): reduction
  kidney volume: reduced
[1]
  positive rate of F4/80 in the kidney tissue (macrophage infiltration): significantly lower
[2]
  number of kidney Ki67 positive staining cells: significantly lower
[3]
  C3aR level: reduced
[3]; [9]
  expression of p-Akt protein: down-regulated
  expression of p-ERK protein: down-regulated
  expression of p-P65 protein: down-regulated
Pkd1 knockout mouse
  apoptosis: increasing

## [Cl][Co][Cl] [cobalt chloride]
[4]
  growth of kidney cysts: inhibit
  infiltration of kidney interstitial macrophages: significantly reduce
  kidney function: improve

## O=C(/C=C/c1ccc(O)c(O)c1)O[C@H](Cc1ccc(O)c(O)c1)C(=O)O [rosmarinic acid]
[4]
  growth of kidney cysts: inhibit
  infiltration of kidney interstitial macrophages: significantly reduce
  kidney function: improve

## C3a: produced by activation of complement C3; promotes inflammatory cell infiltration; used at 100 ng/ml to stimulate macrophages
RAW264.7 cells [5]; 20 ng/ml IL-4 + 100 ng/ml C3a
  pro-inflammatory effect on M2-type macrophages: no significant pro-inflammatory effect
RAW264.7 cells [5]; [10]
  IL-6 mRNA level: remarkably up-regulated
  TNF-alpha mRNA level: remarkably up-regulated
RAW264.7 cells [5]; M1-type macrophages (100 ng/ml LPS) + 100 ng/ml C3a, versus LPS group
  iNOS mRNA level: up-regulated
RAW264.7 cells [6]
  TNF-α level secreted by M1-type macrophages: further increased
RAW264.7 cells [7]; C3a 100 ng/ml alone
  stimulatory effect on M0-type macrophages (p-Akt, p-ERK, p-P65, p-STAT1, TNF-α): not significant
RAW264.7 cells [7]; [11]
  expression of TNF-α protein: further up-regulated
  expression of p-Akt protein: further up-regulated
  expression of p-ERK protein: further up-regulated
  expression of p-P65 protein: further up-regulated
  expression of p-STAT1 protein: further up-regulated
